Our source for the EC50 values is BindingDB's records for doi:10.1021/acs.jmedchem.5b01153 (University of Illinois At Chicago, 2016).

Chain of 5-hydroxytryptamine receptor 2B (P41595 whole entry): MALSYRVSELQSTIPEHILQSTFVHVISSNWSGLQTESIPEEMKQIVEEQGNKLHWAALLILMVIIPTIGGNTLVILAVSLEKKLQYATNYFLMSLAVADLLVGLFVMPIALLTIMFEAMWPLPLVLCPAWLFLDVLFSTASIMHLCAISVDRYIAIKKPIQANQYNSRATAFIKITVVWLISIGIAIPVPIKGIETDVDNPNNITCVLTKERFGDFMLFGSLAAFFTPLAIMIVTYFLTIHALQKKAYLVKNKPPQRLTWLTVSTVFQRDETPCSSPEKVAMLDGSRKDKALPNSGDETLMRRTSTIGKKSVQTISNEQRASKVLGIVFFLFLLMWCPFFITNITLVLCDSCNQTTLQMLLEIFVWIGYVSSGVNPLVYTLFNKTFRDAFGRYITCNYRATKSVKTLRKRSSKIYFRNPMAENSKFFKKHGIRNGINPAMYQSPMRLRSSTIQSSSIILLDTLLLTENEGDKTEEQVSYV

The first assay has as its target 5-hydroxytryptamine receptor 2B (Homo sapiens, UniProt P41595). The assay can be described thus: Agonist activity at recombinant human 5HT2B receptor expressed in Flp-In-293 cells assessed as calcium flux by FLIPR assay.
As usually defined, the EC50 is the concentration that produces a half-maximal response. Turning to `C=CCOc1cc(F)c(Cl)cc1C1CC1CN` (stereo unspecified), the EC50 is 1950 nM.

In a further assay the target is T1, 5-hydroxytryptamine receptor 2C (Homo sapiens, UniProt P28335).
T1 sequence (P28335 whole entry): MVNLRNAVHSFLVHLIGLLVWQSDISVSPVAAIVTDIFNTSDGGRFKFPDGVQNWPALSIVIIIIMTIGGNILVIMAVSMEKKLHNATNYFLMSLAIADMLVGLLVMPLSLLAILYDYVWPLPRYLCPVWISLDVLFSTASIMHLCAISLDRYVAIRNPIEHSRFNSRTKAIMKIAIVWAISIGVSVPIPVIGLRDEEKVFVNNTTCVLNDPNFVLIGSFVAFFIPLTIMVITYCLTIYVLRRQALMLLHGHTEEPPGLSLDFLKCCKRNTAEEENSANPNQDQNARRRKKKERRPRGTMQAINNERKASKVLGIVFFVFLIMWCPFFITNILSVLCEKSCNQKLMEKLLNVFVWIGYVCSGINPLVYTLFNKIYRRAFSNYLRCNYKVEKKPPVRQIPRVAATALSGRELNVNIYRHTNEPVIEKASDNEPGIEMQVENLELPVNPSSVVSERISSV
Nature of the assay: Agonist activity at recombinant human 5HT2C-INI receptor expressed in Flp-In-293 cells assessed as calcium flux by FLIPR assay. In general terms: Calcium assays in cells follow changes in intracellular calcium, usually with a dye or a luminescent sensor.
On to `COc1ccc(F)c(F)c1C1CC1CN` (stereo unspecified), for which the EC50 was found to be 15 nM.

In the case of `N[C@@H](Cc1c[nH]c2ccc(O)cc12)C(=O)O` [OXITRIPTAN], the concentration giving a half-maximal response (EC50) turned out to be 0.219 nM.

Turning to `NCC1CC1c1c(OCCF)ccc(F)c1F` (stereo unspecified), the EC50 is 509 nM.

For `NCC1CC1c1cc(Cl)c(F)cc1OCCF` (stereo unspecified), the EC50 came to 776 nM.

For `COc1ccc(Cl)c(Cl)c1C1CC1CN` (stereo unspecified), the EC50 amounted to 1.1 nM.

Turning to `COc1cc(Cl)c(Cl)cc1C1CC1CN` (stereo unspecified), the EC50 was found to be 13 nM.

As for `NCC1CC1c1c(OCCF)ccc(Cl)c1Cl` (stereo unspecified), the EC50 was 234 nM.

As for `NCC1CC1c1c(OCCF)ccc(Cl)c1F` (stereo unspecified), the EC50 was 386 nM.

On to `C=CCOc1cc(F)c(Cl)cc1C1CC1CN` (stereo unspecified), for which the EC50 is 308 nM.

For the compound `C=CCOc1ccc(F)c(F)c1C1CC1CN` (stereo unspecified), the half-maximal effective concentration (EC50) amounted to 151 nM.
